Measurements: BindingDB's records for patent US12486274 (Verge Analytics, 2025)
pIC50: −log10 of the molar value.

Molecular target: 1-phosphatidylinositol 3-phosphate 5-kinase (Homo sapiens, UniProt Q9Y2I7)
Assay: Inhibition of PIKfyve
Experimental: The kinase reactions were assembled in 384-well plates (Greiner) in a total volume of […] as follows. Kinase protein was pre-diluted in an assay buffer comprising 25 mM HEPES, pH 7.5, 1 mM DTT, 2.5 mM MgCl2, and 2.5 mM MnCl2, and 0.005% Triton X-100, and dispensed into a 384-well plate (10 μL per well). Test compounds were serially pre-diluted in DMSO and added to the protein samples by acoustic dispensing (Labcyte Echo). The concentration of DMSO was equalized to 1% in all samples. All test compounds were tested at 12 concentrations. Apilimod was used as a reference compound and was tested in identical manner in each assay plate. Control samples (0%-inhibition, in the absence of inhibitor, DMSO only) and 100%-inhibition (in the absence of enzyme) were assembled in replicates of four and were used to calculate %-inhibition in the presence of compounds. The reactions were initiated by addition of 10 μL of 2× PI3P/PS substrate supplemented with ATP. The final concentration of enzyme was 2 nM, the final concentration of ATP was […], and the final concentration of PI3P/PS substrate was 1 μM (PI3P). The kinase reactions were allowed to proceed for 3 h at room temperature. Following incubation, the reactions were quenched by addition of […] of termination buffer (100 mM HEPES, pH 7.5, 0.01% Triton X-100, 20 mM EDTA).

Chain of 1-phosphatidylinositol 3-phosphate 5-kinase (Q9Y2I7 whole entry): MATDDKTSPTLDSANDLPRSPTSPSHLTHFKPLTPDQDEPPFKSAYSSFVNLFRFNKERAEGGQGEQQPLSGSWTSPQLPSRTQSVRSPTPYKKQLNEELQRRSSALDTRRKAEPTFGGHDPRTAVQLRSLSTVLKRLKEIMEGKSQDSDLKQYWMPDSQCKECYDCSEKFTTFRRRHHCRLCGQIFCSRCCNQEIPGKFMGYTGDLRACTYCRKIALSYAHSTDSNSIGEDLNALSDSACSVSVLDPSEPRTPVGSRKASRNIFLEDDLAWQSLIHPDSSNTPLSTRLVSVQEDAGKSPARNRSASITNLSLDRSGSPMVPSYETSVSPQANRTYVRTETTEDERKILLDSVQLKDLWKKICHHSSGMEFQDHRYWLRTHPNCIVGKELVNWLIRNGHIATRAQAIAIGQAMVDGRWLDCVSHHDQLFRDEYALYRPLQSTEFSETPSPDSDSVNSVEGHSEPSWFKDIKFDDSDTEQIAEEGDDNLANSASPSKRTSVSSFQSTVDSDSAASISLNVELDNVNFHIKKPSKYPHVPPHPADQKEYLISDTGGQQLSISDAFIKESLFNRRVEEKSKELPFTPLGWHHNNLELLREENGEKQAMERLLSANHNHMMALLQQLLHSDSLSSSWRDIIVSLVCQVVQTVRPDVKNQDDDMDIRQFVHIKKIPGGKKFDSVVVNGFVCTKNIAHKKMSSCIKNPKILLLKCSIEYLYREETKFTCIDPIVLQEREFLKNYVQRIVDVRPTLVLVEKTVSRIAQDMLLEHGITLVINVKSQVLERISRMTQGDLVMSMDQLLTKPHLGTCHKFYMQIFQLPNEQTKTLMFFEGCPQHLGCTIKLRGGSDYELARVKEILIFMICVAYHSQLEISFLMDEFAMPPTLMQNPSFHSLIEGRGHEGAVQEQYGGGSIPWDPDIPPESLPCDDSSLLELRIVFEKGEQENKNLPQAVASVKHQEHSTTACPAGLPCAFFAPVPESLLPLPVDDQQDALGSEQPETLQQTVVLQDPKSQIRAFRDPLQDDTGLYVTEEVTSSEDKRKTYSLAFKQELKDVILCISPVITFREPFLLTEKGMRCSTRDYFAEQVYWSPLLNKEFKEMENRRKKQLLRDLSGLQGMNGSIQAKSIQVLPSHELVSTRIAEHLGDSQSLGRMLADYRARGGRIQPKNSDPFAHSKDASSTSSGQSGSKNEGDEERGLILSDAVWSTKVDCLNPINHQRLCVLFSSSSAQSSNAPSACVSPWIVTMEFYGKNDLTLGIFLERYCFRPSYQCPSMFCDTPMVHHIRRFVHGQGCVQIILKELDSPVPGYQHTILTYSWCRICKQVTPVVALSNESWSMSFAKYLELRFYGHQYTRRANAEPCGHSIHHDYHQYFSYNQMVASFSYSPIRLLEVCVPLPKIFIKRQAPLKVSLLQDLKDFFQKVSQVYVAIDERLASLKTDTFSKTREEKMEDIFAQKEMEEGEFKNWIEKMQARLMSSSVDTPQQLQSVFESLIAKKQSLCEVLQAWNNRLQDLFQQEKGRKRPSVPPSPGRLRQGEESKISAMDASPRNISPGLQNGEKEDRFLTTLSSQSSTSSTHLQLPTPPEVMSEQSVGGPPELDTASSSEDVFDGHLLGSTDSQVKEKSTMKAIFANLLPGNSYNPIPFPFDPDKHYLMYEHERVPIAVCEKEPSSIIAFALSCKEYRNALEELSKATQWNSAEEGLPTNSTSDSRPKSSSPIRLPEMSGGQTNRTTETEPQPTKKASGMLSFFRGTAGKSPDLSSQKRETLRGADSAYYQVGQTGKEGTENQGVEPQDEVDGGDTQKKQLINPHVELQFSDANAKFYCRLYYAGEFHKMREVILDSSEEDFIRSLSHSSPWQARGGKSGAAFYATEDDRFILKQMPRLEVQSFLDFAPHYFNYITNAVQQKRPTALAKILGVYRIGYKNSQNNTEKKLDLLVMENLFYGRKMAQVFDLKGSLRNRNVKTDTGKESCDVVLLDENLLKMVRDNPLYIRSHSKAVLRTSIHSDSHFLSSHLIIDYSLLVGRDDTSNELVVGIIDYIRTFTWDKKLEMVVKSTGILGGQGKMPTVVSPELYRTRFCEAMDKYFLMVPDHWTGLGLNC

Nc1ccc(-c2cc3nc(-n4ccc(-c5ccccc5)n4)cc(N4CCOCC4)n3n2)cn1 [US12486274, Compound 98] was tested, and the pIC50 was 7.52.
